Experimental data reported in PMC9887599, “Synthesis, Optical Properties, and Antiproliferative Evaluation of NBD-Triterpene Fluorescent Probes” (Journal of Natural Products, 2022).

Experiments:
B16-F10 murine melanoma = test: MTT cell-viability assay, B16-F10; format: cell-based; conditions: Mus musculus, 72 h, untreated control cells as 100% viability
Protocol: (§1) The cytotoxic effects of 12 NBD-Aa-triterpene conjugates (1–12) were tested on three different cancer cell lines as a representation of cancers from different tissues and organs (B16-F10 murine melanoma, HT-29 human colon adenocarcinoma, and HepG2 human hepatocyte carcinoma). Cell viability was determined by MTT colorimetric analysis, with increasing concentration levels of each compound (0–200 μg/mL) and incubation for 72 h. The MTT assay was based on the metabolic reduction of 3-(4,5-dimethylthiazol-2-yl)-2,5-diphenyltetrazolium bromide (MTT) to a violet-colored compound (formazan), with a maximum absorbance at 570 nm. Cell viability was proportional to the amount of formazan and was expressed as the percentage of viable treated cells relative to untreated control cells. The concentration at which the derivatives halved the number of viable cells in the three cancer lines (IC50) was determined. […] These NBD conjugates of BO or BM also had higher IC50 values than their precursors (BO or BM), even in NBD conjugates with the shortest-chain ω-amino acid linker (6AHA) (Table 2). Due to these high IC50 values, all of these NBD-conjugated compounds were discarded for further cytometric studies.
(§2) The effect of the synthesized compounds on the viability of tumor cells was assessed using the MTT assay, based on the ability of living cells to metabolically reduce 3-(4,5-dimethylthiazole)-2,5-diphenyltetrazole bromide, rendering formazan, a colored compound with a maximum absorbance of 570 nm. To study the cytotoxic effects of the compounds in the three cancer cell lines, the different lines were seeded in 96-well plates at a cell density per well of 5 × 10^3 for B16-F10, 6 × 10^3 for HT-29, and 15 × 10^3 for HepG2. After seeding, the plates were grown for 24 h and subsequently treated in triplicate with different compounds at different concentrations (0–200 μg/mL) for 72 h. After this time, the cells were stained by adding 100 mL of MTT (0.5 mg/mL) per well and incubated for 1 h. Subsequently, the cells were washed with phosphate-buffered saline (PBS), and formazan was resuspended in 100 μL of DMSO per well. Cell viability was measured by absorbance at 550 nm in an ELISA plate reader (Tecan Sunrise MR20–301, TECAN, Austria).
(§3) For this, Sigmaplot 12.5 software was used, and all quantitative data were expressed as means ± standard deviation (SD). All data shown are representative of at least two independent experiments performed in triplicate.

[1] = test system: HT-29 human colon adenocarcinoma; test: MTT cell-viability assay, HT-29; format: cell-based; conditions: 72 h, untreated control cells as 100% viability
Protocol: as §1, §2, §3

[2] = test system: HepG2 human hepatocyte carcinoma; test: MTT cell-viability assay, HepG2; format: cell-based; conditions: 72 h, untreated control cells as 100% viability
Protocol: as §1, §2, §3

[3] = test system: HPF human pulmonary fibroblasts; test: MTT cytotoxicity on nontumor cells, HPF; format: cell-based; conditions: for IC50: Homo sapiens, Pulmonary fibroblast, MTT assay, nontumor cells; for SI (selectivity index, IC50 nontumor cells/IC50 cancer cells), HPF: column beside HPF
Protocol: (§4) Due to their greater cytotoxic activity, NBD conjugates 1 and 2 were selected to analyze their cytotoxic effects on healthy cells, using nontumor cell lines (HPF human pulmonary fibroblasts, IEC-18 epithelial rat ileum cells, and WRL68 human embryonic hepatic cells) (Table 3). The selectivity indices (SI) of the NBD-Aa-triterpene conjugates 1 and 2 were calculated with the formula: IC50 nontumor cells/IC50 cancer cells. Additionally, cell-viability percentages in the nontumor cells were measured, which ranged in most cases between 75 and 90%.
as §2, §3

[4] = test system: IEC-18 epithelial rat ileum cells; test: MTT cytotoxicity on nontumor cells, IEC-18; format: cell-based; conditions: for IC50: Rattus norvegicus, IEC-18, MTT assay, nontumor cells; for SI (selectivity index, IC50 nontumor cells/IC50 cancer cells), IEC-18: column beside IEC-18
Protocol: as §4, §2, §3

[5] = test system: WRL68 human embryonic hepatic cells; test: MTT cytotoxicity on nontumor cells, WRL68; format: cell-based; conditions: for IC50: Homo sapiens, WRL68, MTT assay, nontumor cells; for SI (selectivity index, IC50 nontumor cells/IC50 cancer cells), WRL68: column beside WRL68
Protocol: as §4, §2, §3

[6] = Cell-viability percentages in nontumor cells, summary; format: cell-based; conditions: human, rat; in most cases
Protocol: as §4
as §2, with “After this time, the cells were stained by adding 100 mL of MTT (0.5 mg/mL) per well and incubated for 1 h. Subsequently, the cells were washed with phosphate-buffered saline (PBS), and formazan was resuspended in 100 μL of DMSO per well.” left out

[7] = Absorption and fluorescence spectroscopy (photophysical data); format: physicochemical; conditions: DMSO, 25 °C; for τ (half-life time of fluorescence): 485 nm pulsed LED; for Φ (fluorescence quantum yield): Coumarin 6 as standard; for (λem)max: excitation at 480 nm
B16-F10 cells = test: Annexin V/propidium iodide flow cytometry of cell death, B16-F10; format: cell-based, mouse; conditions: B16-F10, at IC50 concentration, after 72 h
Protocol: (§5) NBD-6AHA-triterpene conjugates 1 and 2 were selected for the characterization of their cytotoxic effects on the three cancer cell lines used. The percentages of cell death were determined using the concentrations corresponding to the IC50 values for each compound in the three cancer cell lines (B16-F10, HT-29, and HepG2). This study was conducted by flow cytometry, using double staining with DY634 annexin V/propidium iodide, which allows the identification and quantification of intact, apoptotic, or necrotic cells. Annexin DY634 (red fluorescence) is an apoptotic marker due to its ability to bind to phosphatidylserine exposed on the external cell surface. Propidium iodide (orange fluorescence) is a DNA marker that is capable of penetrating only when the cell is damaged, differentiating late apoptotic or necrotic cells from apoptotic ones. These conjugates (1 and 2) are green fluorescent probes, not causing interference in the fluorescence.
(§6) The apoptosis studies were conducted at 4, 24, and 72 h (Figure 5).
(§7) Cell death (apoptosis) was studied by flow cytometry using a FACScan (fluorescence-activated cell sorter) flow cytometer (Coulter Corporation, Hialeah, FL). […] In each experiment, approximately 10 × 10^3 cells were analyzed, and the experiment was duplicated twice.

HT-29 cells = test: Annexin V/propidium iodide flow cytometry of cell death, HT-29; format: cell-based, human; conditions: HT-29, at IC50 concentration, after 72 h
Protocol: as §5, §6, §7

HepG2 cells = test: Annexin V/propidium iodide flow cytometry of cell death, HepG2; format: cell-based, human; conditions: HepG2, at IC50 concentration, after 72 h
Protocol: as §5, §6, §7

[8] = test system: B16-F10, HT-29, and HepG2; test: MTT cell-viability assay, summary over the three cancer cell lines; format: cell-based, mouse, human; conditions: 72 h, stated as holding in most cases, read-out: IC50 concentrations over the three cancer cell lines, in most cases
Protocol: as §1, §2, §3

[9] = set-up: method as in PMID 26512635; conditions: ethanol solution ref 45; cited from earlier work

## CC1(C)CC[C@]2(C(=O)O)CC[C@]3(C)C(=CC[C@@H]4[C@@]5(C)CC[C@H](OC(=O)CCCCCNc6ccc([N+](=O)[O-])c7nonc67)C(C)(C)[C@@H]5CC[C@]43C)[C@@H]2C1 [Compound 1, 3β-((6-((7-Nitrobenzo[c][1,2,5]oxadiazol-4-yl)amino)hexanoyl)oxy)olean-12-en-28-oic Acid]
B16-F10 murine melanoma
  IC50: 2.4 ± 0.1 µM
[1]
  IC50: 19.5 ± 0.1 µM
[2]
  IC50: 12.5 ± 0.1 µM
[3]
  IC50: 39.7 ± 1.2 µM
  SI (selectivity index, IC50 nontumor cells/IC50 cancer cells), HPF: 17
[4]
  IC50: 41 ± 0.3 µM
  SI (selectivity index, IC50 nontumor cells/IC50 cancer cells), IEC-18: 2
[5]
  IC50: 37.9 ± 0.2 µM
  SI (selectivity index, IC50 nontumor cells/IC50 cancer cells), WRL68: 3
[6]
  viability at 72 h: 75 to 90%
[7]
  ε (molar extinction coefficient): 2539 M^–1 cm^–1
  τ (half-life time of fluorescence): 7.712 ns
  Φ (fluorescence quantum yield): 0.76
  (λem)max: 546 nm

## CC1(C)CC[C@]2(C(=O)O)CC[C@]3(C)C(=CC[C@@H]4[C@@]5(C)C[C@@H](OC(=O)CCCCCNc6ccc([N+](=O)[O-])c7nonc67)[C@H](O)C(C)(C)[C@@H]5CC[C@]43C)[C@@H]2C1 [Compound 2, 3β-Hydroxy-2α-((6-((7-nitrobenzo[c][1,2,5]oxadiazol-4-yl)amino)hexanoyl)oxy)olean-12-en-28-oic Acid]
B16-F10 murine melanoma
  IC50: 4.9 ± 0.4 µM
[1]
  IC50: 6.6 ± 0.1 µM
[2]
  IC50: 13.9 ± 0.6 µM
[3]
  IC50: 14.8 ± 1.5 µM
  SI (selectivity index, IC50 nontumor cells/IC50 cancer cells), HPF: 3
[4]
  IC50: 14.7 ± 0.7 µM
  SI (selectivity index, IC50 nontumor cells/IC50 cancer cells), IEC-18: 2
[5]
  IC50: 10 ± 0.3 µM
  SI (selectivity index, IC50 nontumor cells/IC50 cancer cells), WRL68: 1
B16-F10 cells
  percentage of apoptosis: 48%
HT-29 cells
  percentage of apoptosis: 55%
HepG2 cells
  percentage of apoptosis: 53%
[6]
  viability at 72 h: 75 to 90%
[7]
  (λabs)max: 480 nm
  ε (molar extinction coefficient): 3166 M^–1 cm^–1
  τ (half-life time of fluorescence): 7.681 ns
  Φ (fluorescence quantum yield): 0.71
  (λem)max: 546 nm

## CC1(C)CC[C@]2(C(=O)OCc3ccccc3)CC[C@]3(C)C(=CC[C@@H]4[C@@]5(C)CC[C@H](OC(=O)CCCCCCCCCCNc6ccc([N+](=O)[O-])c7nonc67)C(C)(C)[C@@H]5CC[C@]43C)[C@@H]2C1 [Compound 11]
B16-F10 murine melanoma
  IC50: 92.3 ± 1.5 µM
[1]
  IC50: 101 ± 1.1 µM
[2]
  IC50: 82.7 ± 2.5 µM
[8]
  IC50: > 80 µM
[7]
  (λabs)max: 480 nm
  ε (molar extinction coefficient): 2718 M^–1 cm^–1
  τ (half-life time of fluorescence): 7.645 ns
  Φ (fluorescence quantum yield): 0.49
  (λem)max: 546 nm

## CC1(C)CC[C@]2(C(=O)OCc3ccccc3)CC[C@]3(C)C(=CC[C@@H]4[C@@]5(C)C[C@@H](OC(=O)CCCCCCCCCCNc6ccc([N+](=O)[O-])c7nonc67)[C@H](O)C(C)(C)[C@@H]5CC[C@]43C)[C@@H]2C1 [Compound 12]
B16-F10 murine melanoma
  IC50: 80.8 ± 0.9 µM
[1]
  IC50: 108 ± 3.8 µM
[2]
  IC50: 80.9 ± 1.1 µM
[8]
  IC50: > 80 µM
[7]
  (λabs)max: 480 nm
  ε (molar extinction coefficient): 2710 M^–1 cm^–1
  τ (half-life time of fluorescence): 7.633 ns
  Φ (fluorescence quantum yield): 0.46
  (λem)max: 546 nm

## CCN(CC)c1ccc2cc(-c3nc4ccccc4s3)c(=O)oc2c1 [Coumarin 6]
[9]
  ΦF of the standard sample: 0.78
